# Experimental data: PMC6010079, “Inhibition of dengue virus replication by novel inhibitors of RNA-dependent RNA polymerase and protease activities” (Journal of Enzyme Inhibition and Medicinal Chemistry, 2017)
# Several values for one entry are separate records, joined by “and”; a condition that tells them apart may be missing. Equal values may be shown once. Read-outs that look alike come from different tables or passages of the source.
# Legend:
# DENV-2 [1] = test: Anti-DENV RNA activity: RT-qPCR of DENV RNA in DENV-2-infected Huh-7 cells; format: cell-based, DENV-2 (DENV type-2 strain 16681); conditions: for SI (selectivity index, CC50/EC50 ratio): CC50 in Huh-7 / EC50 DENV-2 RNA
# Method: Huh-7 cells were seeded in 24-well plate and infected DENV at an MOI of 0.2 for 2 h and followed by test compound treatment at concentration of 0, 1, 5, 10, 25, 50 and 100 µM for 3 days. The total cellular RNA was harvested by RNA extraction kit[32] following manufacturer’s instrument. DENV RNA and cellular mRNA levels were determined by quantitative real-time reverse-transcription polymerase chain reaction (RT-qPCR) with specific primers. The DENV RNA level was normalised by cellular glyceraldehydes-3-phosphate dehydrogenase (GAPDH) mRNA level. The relative DENV RNA level was calculated by StepOne™ Software v2.2.2 (Applied Biosystems, Foster City, CA, USA) following normalisation of cellular glyceraldehydes-3-phosphate dehydrogenase (GAPDH) mRNA level. The zero dose was defined as 100%. The EC50 values were calculated from non-linear regression curve fitting using GraphPad Prism7 software (San Diego, CA, USA). Results were obtained from three independent experiments.
# [2] = Cell cytotoxicity assay (MTS); format: cell-based; conditions: human, Huh-7 cells, 3 days incubation, read-out: CC50 (half maximal cytotoxicity concentration)
# Method: The Huh-7 cells were seeded in 96-well and treated with test compound at concentration of 0, 10, 25, 50, 100, 150 and 200 µM. After 3 days incubation, the cell viability was determined by CellTiter 96 AQueous One Solution Cell Proliferation Assay (MTS assay) as previously reported. Briefly, the MTS assay buffer was added to the cultured plate following removal of the culture medium. After 2 h of incubation at 37 °C, the absorbance at 492 nm was measured. The cell viability was calculated from non-linear regression curve fitting using GraphPad Prism7. The zero dose was defined as 100%. Results were obtained from three independent experiments.
# DENV-2 NS5 RdRp [3] = target: T1, DENV-2 NS5 RdRp (Dengue virus type 2, UniProt P29990); test: Cell-based RdRp reporter assay (p(+)RLuc-(–)DV-UTRΔC-FLuc + pcDNA-NS5-Myc in Huh-7 cells); conditions: 3 days treatment
# T1 sequence (P29990 2492-3391): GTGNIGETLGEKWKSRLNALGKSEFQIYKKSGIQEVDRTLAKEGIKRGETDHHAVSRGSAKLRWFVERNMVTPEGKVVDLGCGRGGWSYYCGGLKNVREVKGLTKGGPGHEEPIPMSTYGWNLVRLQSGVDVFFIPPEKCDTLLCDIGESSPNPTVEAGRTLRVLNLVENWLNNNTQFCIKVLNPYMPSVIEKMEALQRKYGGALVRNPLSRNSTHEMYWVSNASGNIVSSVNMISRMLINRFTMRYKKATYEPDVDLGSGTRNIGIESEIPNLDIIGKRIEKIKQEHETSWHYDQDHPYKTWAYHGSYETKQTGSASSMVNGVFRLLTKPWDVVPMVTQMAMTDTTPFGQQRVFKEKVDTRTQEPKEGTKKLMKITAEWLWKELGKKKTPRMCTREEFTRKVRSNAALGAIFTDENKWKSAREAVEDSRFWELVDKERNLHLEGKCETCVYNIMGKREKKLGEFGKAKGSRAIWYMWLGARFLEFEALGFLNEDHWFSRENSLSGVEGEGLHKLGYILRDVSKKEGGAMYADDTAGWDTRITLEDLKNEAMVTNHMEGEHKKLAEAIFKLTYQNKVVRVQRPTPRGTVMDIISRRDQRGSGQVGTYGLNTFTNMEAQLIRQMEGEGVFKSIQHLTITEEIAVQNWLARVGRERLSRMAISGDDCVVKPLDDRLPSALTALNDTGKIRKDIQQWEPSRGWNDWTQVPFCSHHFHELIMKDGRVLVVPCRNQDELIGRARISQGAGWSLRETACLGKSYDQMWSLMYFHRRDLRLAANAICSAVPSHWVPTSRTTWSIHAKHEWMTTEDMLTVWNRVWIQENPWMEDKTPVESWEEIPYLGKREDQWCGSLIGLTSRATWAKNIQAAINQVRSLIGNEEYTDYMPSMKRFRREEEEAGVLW
# Method: (§1) The cell-based experiments were performed as previously described. Briefly, the Huh-7 cells were transfected with 0.5 µg of p(+)RLuc-(–)DV-UTRΔC-FLuc and DENV NS5 expression vector pcDNA-NS5-Myc followed by compound treatment for 3 days. The RLuc and FLuc activities were analysed by Dual-Glo Luciferase Assay System[37]. The enzyme-based fluorescence-based alkaline phosphatase-coupled polymerase assay (FAPA) was performed as previously described. Briefly, the template was amplified from the cDNA of DENV-2 minus strand 3′-UTR and its RNA was synthesised by the T7 Megascript kit[38]. The 100 nM DENV NS5 protein was incubated with 1, 5 or 10 µM test compound, 100 nM (−) 3′-UTR RNA, 20 µM CTP, GTP, UTP and 20 µM BBT-ATP (Jena Bioscience) in a total volume of 30 µL in assay buffer (50 mM Tris-HCl, pH 7.5, 10 mM KCl, 1 mM MgCl2, 0.3 mM MnCl2, 0.001% Triton X-100 and 10 µM cysteine) at 25 °C for 60 min. The 30 µL of 2.5× stop buffer (200 mM NaCl, 25 mM MgCl2, 1.5 M diethanolamine, pH 10) with 25 nM calf intestinal alkaline phosphatase (Promega) was added to the reaction after 60-min incubation. The fluorescence signal was measured at excitation wavelength of 422 nm and emission wavelength of 566 nm, respectively.
# DENV-2 NS5 RdRp [4] = target: T1, DENV-2 NS5 RdRp; test: Enzyme-based RdRp activity assay (FAPA); format: biochemical; set-up: the supernatant containing His-tagged DENV-2 NS5 protein; His; made in house; host or cells: Sf9 insect cells (baculovirus vAc-DENV-NS5); conditions: 100 nM DENV NS5 protein, (−) 3′UTR RNA, BBT-ATP, 25 °C, 60 min
# Method: The DENV-2 NS5 protein purification was performed as previously described. Briefly, Sf9 cells were infected by the recombinant baculovirus vAc-DENV-NS5 at an MOI of 10 for 3 days. The cells were pelleted by centrifugation at 1000×g for 5 min at 4 °C and washed twice with phosphate-buffered saline (PBS). The cells were suspended in 5 mL of binding buffer (20 mM sodium phosphate, pH 7.5, 300 mM NaCl, 20 mM imidazole) containing protease inhibitor cocktail, and then disrupted by sonication. After centrifugation, the supernatant containing His-tagged DENV-2 NS5 protein was subjected to metal affinity chromatography employing the AKTA prime protein purification system. The eluted DENV-2 NS5 protein was concentrated by an Amicon Ultra-15 30 k centrifugal filter device[36] and then dialysed against PBS overnight at 4 °C.
# as §1
# DENV-2 NS3 protease = target: T2, DENV-2 NS3 protease (Dengue virus type 2, UniProt P29990); test: Cell-based DENV protease reporter assay (pEG(MITA)SEAP + pcDNA-NS2B-GSG-NS3-Myc in Huh-7 cells); conditions: 3 days treatment, read-out: Cell-based EC50 ± SD (DENV-2 NS3 protease)
# T2 construct: DENV protease expression vector pcDNA-NS2B-GSG-NS3-Myc; expressed in transfected cells; host or cells: Huh-7
# T2 sequence (P29990 1476-2093): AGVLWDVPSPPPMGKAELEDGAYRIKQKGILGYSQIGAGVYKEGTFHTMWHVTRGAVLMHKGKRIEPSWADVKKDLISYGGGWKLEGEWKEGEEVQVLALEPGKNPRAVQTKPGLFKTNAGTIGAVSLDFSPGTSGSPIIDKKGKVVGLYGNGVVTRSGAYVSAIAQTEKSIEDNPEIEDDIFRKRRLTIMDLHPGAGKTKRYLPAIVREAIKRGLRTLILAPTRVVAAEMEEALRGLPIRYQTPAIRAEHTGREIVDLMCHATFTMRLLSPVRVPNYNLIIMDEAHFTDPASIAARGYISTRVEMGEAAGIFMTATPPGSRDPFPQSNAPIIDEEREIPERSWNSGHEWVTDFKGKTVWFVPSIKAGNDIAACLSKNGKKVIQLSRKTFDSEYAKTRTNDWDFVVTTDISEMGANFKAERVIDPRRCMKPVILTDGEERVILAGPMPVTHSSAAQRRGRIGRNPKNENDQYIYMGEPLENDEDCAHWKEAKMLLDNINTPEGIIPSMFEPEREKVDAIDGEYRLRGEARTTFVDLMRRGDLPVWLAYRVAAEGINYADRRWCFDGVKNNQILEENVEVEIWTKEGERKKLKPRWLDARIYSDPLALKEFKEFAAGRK
# Method: (§2) For cell-based activity assay, the Huh-7 cells were cotransfected with 0.5 µg of pEG(MITA)SEAP reporter vector and DENV protease expression vector pcDNA-NS2B-GSG-NS3-Myc followed by compound treatment for 3 days. The SEAP activity was analysed by Phospha-Light SEAP Reporter Gene Assay System[40]. The enzyme-based experiment was performed as previously described. Briefly, the 7-amino-4-methylcoumarin (AMC) fluorophore-linked peptide substrate Boc-GRR-AMC[41] and purified DENV NS2B/NS3pro protein were used to analyse DENV NS2B/NS3 protease activity. The 100 nM DENV NS2B/NS3pro protein was incubated with 1, 5 or 10 µM tested compound and 10 µM Boc-GRR-AMC in cleavage buffer (200 mM Tris [pH 9.5], 20% glycerol) for 30 min at 25 °C. The fluorescence signal was detected at excitation wavelength of 380 nm and emission wavelength of 465 nm, respectively.
# DENV NS2B/NS3pro protein = target: T3, DENV NS2B/NS3pro protein (Dengue virus type 2, UniProt P29990); test: Enzyme-based DENV NS2B/NS3 protease assay (Boc-GRR-AMC substrate); format: biochemical; conditions: Enzyme-based EC50 ± SD (DENV-2 NS3 protease), 100 nM NS2B/NS3pro, 10 µM Boc-GRR-AMC, 30 min, 25 °C
# T3 construct: made in house; host or cells: Escherichia coli BL21 (DE3)
# T3 sequence (P29990 1346-1475): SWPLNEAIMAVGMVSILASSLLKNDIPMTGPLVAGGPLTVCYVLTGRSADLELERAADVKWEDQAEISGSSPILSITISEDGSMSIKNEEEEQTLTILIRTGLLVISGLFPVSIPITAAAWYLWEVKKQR
# T3 sequence (P29990 1476-1653): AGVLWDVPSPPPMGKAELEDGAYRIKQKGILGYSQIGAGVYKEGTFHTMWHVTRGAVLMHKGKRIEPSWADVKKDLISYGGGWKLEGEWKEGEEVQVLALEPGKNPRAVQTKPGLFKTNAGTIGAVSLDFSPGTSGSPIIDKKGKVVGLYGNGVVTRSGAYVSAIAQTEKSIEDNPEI
# Method: The DENV NS2B/NS3pro purification was performed as previously described. Briefly, the pET24b-NS2B-NS3pro plasmid was transformed into competent Escherichia coli BL21 (DE3) and grew in kanamycin (50 µg/mL)-containing LB at 26 °C until OD600 nm reached 0.6. The isopropyl-β-D-thiogalactopyranose was added into the bacterial culture at 0.5 mM for protein induction. After 12-h incubation, cells were collected and subjected to protein purification following previous description.
# as §2
# DENV-2 [5] = test: Anti-DENV activity in DENV-infected ICR-suckling mouse model; format: in vivo; conditions: 6-day-old ICR-suckling mice; for Clinical scores and body weight (DENV-induced pathology): 2.5 × 10^5 pfu DENV-2, within 4 to 6 dpi; for Survival rate: DENV-2, compared to untreated mice
# Text: Breeder ICR mice were purchased from BioLasco Taiwan Co. Ltd. The experimental protocol was approved by the Animal Research Committee of Kaohsiung Medical University of Taiwan (IACUC, protocol number 102177). All mice received humane care and fed with standard rodent chew and water ad libitum. Mice were kept under a standard laboratory condition following the Animal Use Protocol of Kaohsiung Medical University. The 6-day-old ICR-suckling mice were intracerebrally injected with DENV-2 followed by intracerebrally injecting saline or test compound at 1, 3, 5 days postinfection (dpi). […] The body weight, clinical scores and survival rate were recorded every day. The mice were sacrificed at 6 dpi.
# To access the antiviral activity of compound 3 and 4in vivo, 6-day-old ICR-suckling mice were inoculated with 2.5 × 10^5 pfu of DENV-2 by intracerebral injection and then were administered with compound 3 (10 mg/kg) or 4 (1 mg/kg) by intracerebral injection at 1-, 3- and 5-day postinfection (dpi); inoculation of heat-inactivated DENV-2 (iDENV) served as a mock control.
# [6] = Dengue virus, DENV2, Huh-7, 72 h, Huh-7 cells infected with DENV-2 at MOI 0.2, 3 days treatment, qRT-PCR with primers targeting NS5, normalised to GAPDH, read-out: EC50 ± SD (DENV-2 RNA)
# [7] = Huh-7 cells infected with DENV-2 at MOI 0.2, 3 days treatment, qRT-PCR with primers targeting NS5, normalised to GAPDH, read-out: EC50 ± SD (DENV-2 RNA)
# [8] = Cell-based EC50 ± SD (DENV-2 NS5 RdRp)
# [9] = read-out: Enzyme-based EC50 ± SD (DENV-2 NS5 RdRp)
# [10] = Dengue virus, DENV2, Huh-7, 72 h, read-out: EC50 ± SD (DENV-2 RNA), Huh-7 cells infected with DENV-2 at MOI 0.2, 3 days treatment, qRT-PCR with primers targeting NS5, normalised to GAPDH
# [11] = 1 mg/kg intracerebral injection at 1, 3, 5 dpi
# [12] = 10 mg/kg intracerebral injection at 1, 3, 5 dpi
# [13] = read-out: EC50 ± SD (DENV-2 RNA), Huh-7 cells infected with DENV-2 at MOI 0.2, 3 days treatment, qRT-PCR with primers targeting NS5, normalised to GAPDH
Compound,"SI (selectivity index, CC50/EC50 ratio) (DENV-2 [1])",EC50 (DENV-2 [1]; [6]),EC50 (DENV-2 [1]; [7]),CC50 at 3 days [2],EC50 (DENV-2 NS5 RdRp [3]; [8]),EC50 (DENV-2 NS5 RdRp [4]; [9]),EC50 (DENV-2 [1]; [10]),EC50 (DENV-2 NS3 protease),EC50 (DENV NS2B/NS3pro protein),Clinical scores and body weight (DENV-induced pathology) (DENV-2 [5]; [11]),Survival rate (DENV-2 [5]; [11]),EC50 (DENV-2 NS5 RdRp [3]; read-out: Cell-based EC50 ± SD (DENV-2 NS5 RdRp)),Clinical scores and body weight (DENV-induced pathology) (DENV-2 [5]; [12]),Survival rate (DENV-2 [5]; [12]),EC50 (DENV-2 NS5 RdRp [4]; Enzyme-based EC50 ± SD (DENV-2 NS5 RdRp)),EC50 (DENV-2 [1]; [13])
"CCOC(=O)c1cnn(C)c1NS(=O)(=O)c1ccc(-n2cccc2C(=O)c2ccccc2)cc1 [Compound 2, Ethyl 5–(4-(2-benzoyl-1H-pyrrol-1-yl)phenylsulphonamido)-1-methyl-1H-pyrazole-4-carboxylate]",>26.3,7.61 ± 0.36 µM,7.6 ± 0.4 µM,> 200 µM,7.22 µM and 7.2 µM,5.34 µM and 5.3 µM,,,,,,,,,,
"COC(=O)c1[nH]c2ccc(Cl)cc2c1C(=O)c1cc(OC)c(O)c(OC)c1 [Compound 4, Methyl 5-chloro-3–(4-hydroxy-3,5-dimethoxybenzoyl)-1H-indole-2-carboxylate]",39.3,,,181 µM,,,4.6 ± 0.3 µM,6.71 µM and 6.7 µM,4.72 µM and 4.7 µM,reduced DENV-induced pathology,significantly protected the mice,,,,,
"CCOC(=O)c1cnn(-c2ccccc2)c1N(S(=O)(=O)c1ccc([N+](=O)[O-])cc1)S(=O)(=O)c1ccc([N+](=O)[O-])cc1 [Compound 3, Ethyl 5–(4-nitro-N-((4-nitrophenyl)sulphonyl)phenylsulphonamido)-1-phenyl-1H-pyrazole-4-carboxylate]",>35.1,5.66 ± 0.25 µM,5.7 ± 0.3 µM,> 200 µM,,,,,,,,5.99 µM and 6 µM,reduced DENV-induced pathology,significantly protected the mice,4.87 µM and 4.9 µM,
"COC(=O)c1[nH]c2ccc(Cl)cc2c1Cc1cc(OC)cc(OC)c1 [Compound 5, Methyl 5-chloro-3–(3,5-dimethoxybenzyl)-1H-indole-2-carboxylate]",> 27.4,,,> 200 µM,,,7.28 ± 0.13 µM,7.92 µM and 7.9 µM,,,,,,,,7.3 ± 0.3 µM
"CCOC(=O)c1cnn(C)c1N(S(=O)(=O)c1ccc(Cl)cc1)S(=O)(=O)c1ccc(Cl)cc1 [Compound 1, Ethyl 5–(4-chloro-N-((4-chlorophenyl)sulphonyl)phenylsulphonamido)-1-methyl-1H-pyrazole-4-carboxylate]",17.7,11.1 ± 0.21 µM,,196 µM,8.07 µM and 8.1 µM,7.78 µM and 7.8 µM,,,,,,,,,,11.7 ± 0.2 µM
